Legend:
[1] = tested on: TRPMLs; settings: high concentrations needed; background statement; cited from earlier work
[2] = target: T1, Human TRPML3 (Homo sapiens, UniProt Q8TDD5); test: Fluorescent TRPML3 assay (as for TRPML1); type: cell-based; settings: fluorescent calcium assay as for TRPML1, TRPML3 subtype
T1 construct: expressed in transfected cells
T1 sequence (Q8TDD5 1-553): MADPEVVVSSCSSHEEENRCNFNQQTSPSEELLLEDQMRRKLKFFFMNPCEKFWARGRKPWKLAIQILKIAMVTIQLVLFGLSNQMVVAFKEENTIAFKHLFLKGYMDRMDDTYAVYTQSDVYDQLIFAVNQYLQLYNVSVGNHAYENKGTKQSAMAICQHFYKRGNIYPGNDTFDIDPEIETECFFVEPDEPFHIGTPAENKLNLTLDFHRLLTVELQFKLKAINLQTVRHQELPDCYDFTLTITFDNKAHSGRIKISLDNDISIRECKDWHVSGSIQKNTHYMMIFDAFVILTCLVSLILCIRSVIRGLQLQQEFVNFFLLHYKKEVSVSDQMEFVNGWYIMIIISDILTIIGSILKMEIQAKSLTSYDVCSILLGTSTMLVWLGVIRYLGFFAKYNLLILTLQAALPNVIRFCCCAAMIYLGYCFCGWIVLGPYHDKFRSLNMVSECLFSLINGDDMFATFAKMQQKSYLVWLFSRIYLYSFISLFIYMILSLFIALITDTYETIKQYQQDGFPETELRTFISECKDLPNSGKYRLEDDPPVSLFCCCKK
How it was run: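 Tet-inducible HEK-293 Trex cells expressing human TRPML2 or TRPML3, induced overnight with 0.5 μg/mL doxycycline, loaded with 1 μM Fluo4-AM and suspended in Ringer's solution with 10 mM calcium. Compounds tested in triplicate from 20 μM to 6 nM final in half-log steps; fluorescence at 480/540 nm. EC50 by non-linear regression, binned A–D.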

[3] = target: Human TRPML1 (Homo sapiens, UniProt Q9GZU1, L15A/L16A/L577A/L578A); test: Fluorescent TRPML1 assay (Fluo4-AM, HEK-293 Trex cells expressing hTRPML1); type: cell-based; settings: fluorescent calcium assay, doxycycline-induced hTRPML1
How it was run: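 Doxycycline-induced (0.5 μg/mL) HEK-293 Trex cells stably expressing surface-targeted mutant hTRPML1, loaded with 1 μM Fluo4-AM, then suspended in modified Ringer's with 10 mM calcium and added to compounds (20 μM to 6 nM final, half-log steps, triplicate). Fluorescence read at ex 480/em 540; percent activity versus plate controls, EC50 by non-linear regression.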

[4] = target: T2, Human TRPML2 (Homo sapiens, UniProt Q8IZK6); test: Fluorescent TRPML2 assay (as for TRPML1); type: cell-based; settings: fluorescent calcium assay as for TRPML1, TRPML2 subtype
T2 construct: expressed in transfected cells
T2 sequence (Q8IZK6 1-566): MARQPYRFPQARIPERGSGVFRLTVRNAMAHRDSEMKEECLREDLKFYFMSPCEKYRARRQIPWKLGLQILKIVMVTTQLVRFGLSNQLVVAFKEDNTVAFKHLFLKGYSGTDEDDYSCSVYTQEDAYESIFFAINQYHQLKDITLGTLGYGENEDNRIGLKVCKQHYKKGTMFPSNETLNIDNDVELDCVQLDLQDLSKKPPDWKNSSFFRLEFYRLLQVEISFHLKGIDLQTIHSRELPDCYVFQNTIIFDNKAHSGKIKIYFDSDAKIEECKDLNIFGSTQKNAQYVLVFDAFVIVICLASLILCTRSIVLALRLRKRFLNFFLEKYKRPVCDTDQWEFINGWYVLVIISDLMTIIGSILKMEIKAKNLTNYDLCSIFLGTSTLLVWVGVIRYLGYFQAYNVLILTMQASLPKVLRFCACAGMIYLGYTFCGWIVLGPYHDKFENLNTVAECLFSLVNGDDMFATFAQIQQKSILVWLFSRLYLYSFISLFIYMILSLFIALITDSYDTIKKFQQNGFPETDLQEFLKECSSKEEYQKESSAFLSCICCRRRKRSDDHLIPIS
Description: HEK-293 Trex cells were stably transfected with a construct consisting of the human coding sequence for TRPML1 cloned into the tet-inducible plasmid pCDNA5 T/O. Mutations were introduced into the TRPML1 sequence to facilitate expression on the cell surface (Silvia Vergarajauregui, Rosa Puertollano Traffic. 2006 March; 7(3): 337-353). Briefly, the cells are cultured in 150 mm round tissue culture dishes containing 20 mL of media. The day before the assay the cells are rinsed with DPBS-Ca-Mg and then treated briefly with Trypsin-EDTA. The Trypsin-EDTA is diluted with growth media, and cells are counted. 38×10^6 cells are re-plated into 150 mm round tissue culture dishes in media containing 0.5 μg/mL doxycycline to induce expression of hTRPML1.
The day of the experiment cells are lifted from the plates as above and collected by centrifugation. The cells are then suspended in dye loading buffer consisting of Ringer's solution supplemented with 0.1% Pluronic Acid and 1 micromolar Fluo4-AM dye. Cells are loaded for ~60 minutes in the dark with occasional mixing. The cells are collected by centrifugation, the loading media aspirated, and the cells resuspended in 25 mL Ringer's solution and incubated ~60 minutes in the dark. The cells are again collected by centrifugation, rinsed in Ringer's Solution and resuspended to 0.2×10^6 cells/mL in modified Ringer's solution containing 10 mM calcium.
Compounds are dissolved to a concentration of 10 millimolar with DMSO. Compound plates are created by dispensing compounds into 384 well black wall clear bottom plates (Greiner 781091). Positive and negative controls are included on each plate. Typically, different amounts of each compound are tested ranging from 100 nanoMoles (20 micromolar final concentration) decreasing in half-log steps to 31 picoMoles (6 nanomolar final concentration). Each concentration is typically tested in triplicate.
50 microliters of dye-loaded cells are dispensed into each well of the compound assay plate created above. The fluorescence in each well is then determined with an excitation wavelength of 480 nm and an emission wavelength of 540 nm using either a Molecular Devices SpectraMax multimode plate reader or a Hamamatsu FDSS/uCell plate imager.
The resulting fluorescence for each well is exported as an ascii file and loaded into our LIMS for analysis. The percent activity of each compound at each concentration is determined by comparison to the positive and negative control wells included in each plate.
Assays for TRPML2 and TRPML3 were performed as above for TRPML1, by substituting the appropriate TRPML2 or TRPML3 subtype for the TRPML1.
EC50 values were calculated using a non-linear regression of Prism. In the table, “A” indicates an EC50 of less than 100 nM, “B” indicates an EC50 range from 100 nM to 500 nM: “C” indicates an EC50 range from 500 nM to 2 μM; and “D” indicates an EC50 greater than 2 μM.

Sequence of Human TRPML1 (Q9GZU1 whole entry L15A/L16A/L577A/L578A): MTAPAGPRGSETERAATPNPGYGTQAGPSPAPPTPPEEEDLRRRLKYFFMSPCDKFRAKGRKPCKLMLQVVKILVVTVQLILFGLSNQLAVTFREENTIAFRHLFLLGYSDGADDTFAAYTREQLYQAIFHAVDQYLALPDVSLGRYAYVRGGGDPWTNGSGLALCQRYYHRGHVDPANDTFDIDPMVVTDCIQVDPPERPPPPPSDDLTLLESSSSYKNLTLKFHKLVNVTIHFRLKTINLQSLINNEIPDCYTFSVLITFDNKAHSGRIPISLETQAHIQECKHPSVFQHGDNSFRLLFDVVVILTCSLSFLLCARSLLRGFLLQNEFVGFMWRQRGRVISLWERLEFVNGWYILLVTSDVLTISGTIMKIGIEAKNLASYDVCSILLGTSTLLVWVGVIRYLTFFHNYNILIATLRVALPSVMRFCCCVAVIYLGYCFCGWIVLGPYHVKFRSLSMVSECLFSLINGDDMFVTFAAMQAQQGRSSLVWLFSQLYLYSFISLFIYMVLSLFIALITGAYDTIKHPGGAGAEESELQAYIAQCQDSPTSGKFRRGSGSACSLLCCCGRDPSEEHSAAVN

With `CC1CC(C)(C)N(C(=O)CN2C(=O)c3ccccc3C2=O)c2ccccc21` (stereo not shown) [ML-SA1, Mucolipin Synthetic Agonist I] as the molecule, how does the “concentration needed to effectively activate TRPMLs” value [1] read?
The value was ~ 10 μM.

Which EC50 [2] does the source give for `COC1(C(=O)N2C[C@H](C)N(c3ncnc4c3c(-c3ccccc3F)cn4-c3cc(C#N)ccn3)C[C@H]2C)COC1` [Compound 166, 2-(5-(2-fluorophenyl)-4-((2S,5R)-4-(3-methoxyoxetane-3-carbonyl)-2,5-dimethylpiperazin-1-yl)-7H-pyrrolo[2,3-d]pyrimidin-7-yl)isonicotinonitrile] here?
Its EC50 is < 100 nM.

What about the EC50 [3] of the same molecule?
Its EC50 is < 100 nM.

What about the EC50 [4] of the same molecule?
Its EC50 is 500 to 2000 nM.

Which EC50 [2] does the source give for `C[C@@H]1CN(c2ncnc3c2c(-c2ccccc2F)cn3-c2cc(C#N)ccn2)[C@@H](C)CN1C(=O)C1(O)CCCC1` [Compound 121, 2-(5-(2-fluorophenyl)-4-((2S,5R)-4-(1-hydroxycyclopentane-1-carbonyl)-2,5-dimethylpiperazin-1-yl)-7H-pyrrolo[2,3-d]pyrimidin-7-yl)isonicotinonitrile] here?
The EC50 was < 100 nM.

What about the EC50 [3] of the same molecule?
The EC50 was < 100 nM.

And the EC50 [4]?
Its EC50 is 500 to 2000 nM.

For `C[C@@H]1CN(c2ncnc3c2c(-c2ccncc2)cn3-c2cc(C#N)ccn2)[C@@H](C)CN1C(=O)C1(O)CCCCC1` [Compound 151, 2-(4-((2S,5R)-4-(1-hydroxycyclohexane-1-carbonyl)-2,5-dimethylpiperazin-1-yl)-5-(pyridin-4-yl)-7H-pyrrolo[2,3-d]pyrimidin-7-yl)isonicotinonitrile], which EC50 [2] is on record?
The EC50 was 100 to 500 nM.

What about the EC50 [3] of the same molecule?
Its EC50 is < 100 nM.

What about the EC50 [4] of the same molecule?
The EC50 was 500 to 2000 nM.

— patent publication US20260285866A1, “MODULATORS OF TRPML, THEIR COMPOSITIONS AND METHODS OF USE” (Caraway Therapeutics, Inc., priority 2024, published 2026)
